# Experimental data taken from patent US20100137144A1, “METHOD AND MEANS FOR DETECTING AND/OR QUANTIFYING HIERARCHICAL MOLECULAR CHANGE OF A CELL IN RESPONSE TO AN EXTERNAL STIMULUS” (Eppendorf Array Technologies S.A., priority 2005, published 2010).
# Entries after “also recorded” stand apart in the source; their conditions may differ.
# Key:
# MCF7 cells = experiment: DualChip human breast cancer microarray: gene expression in stimulated MCF7 cells; type: cell-based; conditions: 24 h; for Number of genes whose expression level is modified: out of 210
# [1] = test system: AP1 (c-Jun), STAT1, Elk-1, p53, c-Myc, ATF2, NFATc1 and MEF2 in MCF7 cells; experiment: TF Chip MAPK microarray: activated transcription factors in stimulated MCF7 cells; type: cell-based, human
# [2] = test system: AP1 (c-Jun), STAT1, Elk-1, p53, c-Myc, ATF2, NFATc1 and MEF2 in U937 cells; experiment: TF Chip MAPK microarray: activated transcription factors in stimulated U937 cells; type: cell-based, human; conditions: 1000 U/ml
# Description: They are stimulated at 10.10^6 cells/75 cm^2 flask with IFNγ (1000 U/ml) for 15 min and 24 h or left untreated.
# The activation of transcription factors is monitored on microarrays using the TF Chip MAPK kit from Eppendorf (Germany). The arrays contain double stranded DNA molecules as capture probes for the TF binding. The TF Chip MAPK allows the assay of AP1 (c-Jun), STAT1, Elk-1, p53, c-Myc, ATF2, NFATc1 and MEF2.
# A blocking step is performed in a Blocking Solution (TF Chip MAPK kit, Eppendorf, Germany) for 1 h at RT, followed by a washing step using the Washing Buffer A (TF Chip MAPK kit, Eppendorf, Germany). The nuclear extracts are prepared as described in WO 01/73115. They are diluted in the Sample Dilution Solution and Binding Solution (TF Chip MAPK kit, Eppendorf, Germany) and contacted with the arrays. Incubation is performed for one hour at room temperature and under agitation at 600 rpm. Samples are removed and microarrays are washed 3 times.
# A mix of primary antibodies (Primary Antibody Cocktail; TF Chip MAPK kit, Eppendorf, Germany), each specifically recognizing the activated form of a transcription factor to be detected and diluted in the Primary Antibody Solution (TF Chip MAPK kit, Eppendorf, Germany), is contacted with the microarrays for 1 h at RT, followed by 3 washing steps. Each microarray is then contacted with Cy3-labeled secondary antibodies under indirect light for 45 min at RT, followed by washing.
# Hybridization chambers are removed, and slides are rinsed with Washing Buffer B (TF Chip MAPK kit, Eppendorf, Germany) and dried. A fluorescence detection of signals is performed by scanning slides using a laser confocal scanner “ScanArray” (Packard, USA) at a resolution of 10 μm. Signals are analyzed using the TF Chip MAPK Data analysis software.
# The experiment was performed as described in example 1 with the cells being stimulated for 15 min and 24 h with IFNγ or IFNα at the same concentration (1000 U/ml).
# The assays were performed on the TF Chip MAPK kit and on the DualChip® human RNAi side effect (Eppendorf, Germany) as in example 1. Table 2 presents the ratios for the genes whose values were found quantitative as explained in example 1. However, we investigated further the genes which were found positive for the IFNα response. For these genes, we incorporated into the table the values for the genes determined as quantitative for IFNγ but also the values for two genes, SERPINB2 and IFIT2, which were found qualitative, and the values for 4 other genes for which the ratios were significant when a confidence interval of 90% rather than the normal 95% is considered. These values are presented for sake of completing the information on the comparison between the two treatments and are marked with an asterisk.
# U937 cells = experiment: DualChip human RNAi side effect microarray: gene expression in stimulated U937 cells; type: cell-based; conditions: for Number of genes exclusively regulated by this interferon: from 89 significant genes
# Description: The DualChip® human RNAi side effect (Eppendorf, Germany) was used for assay of the changes in the gene expression.
# The microarray contains, in triplicates, capture probes to analyze the expression of 260 human genes. In order to evaluate the entire experiment, several positive and negative controls (for hybridization and detection) as well as special capture probes for normalization are included. The DualChip® consists of two microarrays on one slide that has already been framed with a hybridization frame.
# The instructions provided by the supplier were followed for the hybridization and the analysis of the results.
molecule,measurement,setting,value
"C[C@]12CC[C@@H]3c4ccc(O)cc4CC[C@H]3[C@@H]1CC[C@@H]2O [β-Estradiol, β-estradiol]",Number of genes whose expression level is modified,MCF7 cells; 1 μM,50 genes
same,"Activation state of c-Jun, ATF2, Elk-1 and STAT1","[1]; MCF7 cells, 1 μM",did not highlight any modification in the activation state
same,Activation of c-Myc,"[1]; MCF7 cells, 1 μM, 24 h, cells confluent",reduced
same,Activation of p53,"[1]; MCF7 cells, 1 μM, 24 h, cells confluent, possibly not specific to the treatment",triggered
same,Activation of c-Myc,"[1]; sub-confluent MCF7 cells, 1 μM, 4 h",fast activation
IFNα,Activation of transcription factor STAT1,"[2]; 15 min, vs unstimulated cells",the only TF showing a specific signal in the treated cells
same,Number of genes exclusively regulated by this interferon,"U937 cells; 24 h, 1000 U/ml",6 genes
"IFNγ: interferon γ, used at 1000 U/ml as stimulus of U937 cells",Activation of transcription factor MEF2,[2],activated in IFNγ stimulated and non stimulated conditions
same,Activation of transcription factor STAT1,"[2]; 15 min, vs unstimulated cells",specifically activated; also recorded: fast activation; also recorded: the only TF showing a specific signal in the treated cells
same,Activation of transcription factor STAT1,[2]; 24 h,disappears after 24 h
same,"Activation of the 7 other transcription factors (AP1 (c-Jun), Elk-1, p53, c-Myc, ATF2, NFATc1, MEF2)",[2]; vs unstimulated cells,"None of the 7 other ones (AP1 (c-Jun), Elk-1, p53, c-Myc, ATF2, NFATc1 and MEF2) were activated"
same,Number of genes affected at the two stimulation times,U937 cells; 15 min and 24 h,Five
same,Differential expression of genes BAX and BCLX,U937 cells; 1000 U/ml,not found to be differentially expressed
same,Number of genes whose expression level varies significantly,"U937 cells; 1000 U/ml, 15 min and 24 h, quantitative analysis, 260 genes on array",81 genes
same,Expression level of gene FOS,"U937 cells; 1000 U/ml, 24 h",returned to a basal level
same,Number of genes exclusively regulated by this interferon,"U937 cells; 24 h, 1000 U/ml",62 genes
same,Number of genes specifically affected by a 15 min treatment,U937 cells; out of 81,4 genes
same,Number of genes specifically modified after a 24 h treatment,U937 cells; out of 81,72 genes
hydrogen peroxide [H2O2],"Regulation of genes p53, bcl-x and thrombospondin-1",MCF7 cells; 200 μM,not shown experimentally to be regulated
same,Number of apoptotic pathway genes affected (BAG and BAX),"MCF7 cells; 200 μM, of 9 on the array",2 genes
same,Number of genes whose expression level is modified,MCF7 cells; 200 μM,16 genes
same,"Expression ratio, gene BAG-1","MCF7 cells; 200 μM, vs untreated cells",1.65
same,"Expression ratio, gene BAX","MCF7 cells; 200 μM, vs untreated cells",1.86
same,"Expression ratio, gene CTSD","MCF7 cells; 200 μM, vs untreated cells",1.65
same,"Expression ratio, gene FOXM1","MCF7 cells; 200 μM, vs untreated cells",0.55
same,"Expression ratio, gene K-alpha-1","MCF7 cells; 200 μM, vs untreated cells",0.63
same,"Expression ratio, gene MCM7","MCF7 cells; 200 μM, vs untreated cells",0.57
same,"Expression ratio, gene MDM2","MCF7 cells; 200 μM, vs untreated cells",1.73
same,"Expression ratio, gene MKi67","MCF7 cells; 200 μM, vs untreated cells",0.56
same,"Expression ratio, gene MYBL2","MCF7 cells; 200 μM, vs untreated cells",0.53
same,"Expression ratio, gene Muc1","MCF7 cells; 200 μM, vs untreated cells",1.64
same,"Expression ratio, gene NIFU","MCF7 cells; 200 μM, vs untreated cells",1.53
same,"Expression ratio, gene ODC","MCF7 cells; 200 μM, vs untreated cells",0.61
same,"Expression ratio, gene PPP1CB","MCF7 cells; 200 μM, vs untreated cells",0.62
same,"Expression ratio, gene STMN1","MCF7 cells; 200 μM, vs untreated cells",0.54
same,"Expression ratio, gene TOB","MCF7 cells; 200 μM, vs untreated cells",1.63
same,"Expression ratio, gene p21 (CDKN1A)","MCF7 cells; 200 μM, vs untreated cells",3.26
same,"Activation state of c-Jun, Elk-1 and STAT1","[1]; MCF7 cells, 200 μM",did not highlight any modification in the activation state
same,"Activation of ATF2, c-Myc, MEF2 and NFATc1","[1]; MCF7 cells, 200 μM, 3 h",suppressed
same,Activation of transcription factor p53,"[1]; MCF7 cells, 200 μM, 3 h and 24 h",activation of p53
same,"Activation of ATF2, c-Myc, MEF2 and NFATc1","[1]; MCF7 cells, 200 μM, 24 h",restored to a basal level
